{"source": "patent US20200399329A1", "about": "“ANTIMICROBIAL PEPTIDES” (priority 2015, published 2020)", "key": {"E. coli [1]": {"tested_on": "E. coli", "assay": "Antimicrobial activity after pre-treatment of peptide with Proteinase-K", "format": "cell-based", "conditions": "12.5 μM peptide pre-treated with 20 ng ProtK for 2 hours at 37° C., 18 hours", "description": "The susceptibility of OMN6/CecA to proteolytic degradation was assessed and the effects of stability on activity were determined. Native peptide-CecA and engineered peptide-OMN6 were incubated with 20 ng of Proteinase-K (ProtK) at 37° C. for two hours (left bars and right bars, respectively). E. coli at 500,000 CFU/ml were incubated for 18 hours with either CecA or OMN6 pretreated with ProtK. After the incubation, bacterial survival was determined via absorption at OD600 nm and via CFU count on agar plates."}, "A. baumannii BAA-1793": {"tested_on": "A. baumannii BAA-1793", "format": "cell-based, Acinetobacter baumannii", "conditions": "FIG. 7", "description": "In order to determine the Minimal Bactericidal Concentration (MBC) values of the peptides, colony formation of various bacteria strains was monitored and determined after treatment with the peptides of the invention. Multi-Drug Resistant A. baumannii bacteria were cultured with or without OMN6 in increasing concentrations, as is detailed in FIG. 6 and Example 6. Immediately afterwards, samples of each experimental group were diluted to 1×10^4 to 1×10^6 as necessary, and further, the samples were plated on appropriate medium-agar plates. All the plates were incubated at 37° C. for 24-48 hours. Colonies were counted and CFU/ml in the original sample, prior to plating, were calculated and determined. An example of the plates, after incubation, is presented in FIG. 7 where the plate on the left side of the image is the CTRL sample treated with DDW and in the right side of the image increasing concentrations of OMN6 are presented, as specified therein.\nThe experimental system and parameters described here were used to determine the MBC values of OMN2, OMN6, OMN7 and OMN11 on various bacteria strains with and without the supplementation of 10% FBS (Table 6 and Table 8)."}, "E. coli [2]": {"tested_on": "E. coli", "assay": "E. coli growth monitored via OD600 nm with CecA or OMN6", "format": "cell-based", "description": "An assay was conducted in order to compare the antimicrobial activity of the native peptide Cecropin A (CecA) vs. a peptide of the invention OMN6. E. coli bacteria were cultured with CecA or OMN6 in concentration of 12.5 μM for 17-20 hours. The growth of the bacteria was continuously monitored via spectrophotometry at 600 nm. As bacterial growth progresses, OD600 nm values rise, and where the growth is inhibited OD600 nm values remain constant. […] The bacteria completely overcame the inhibitory effect of CecA after 10 hours. The bacteria then continued to thrive and grow to density similar to that of the CTRL group."}, "E. coli CR BAA-2452": {"tested_on": "E. coli CR BAA-2452", "format": "cell-based, Escherichia coli", "conditions": "OMN6 12.5 μM, FIG. 6D", "description": "In order to determine the MIC values of the peptides, growth and inhibition of various bacteria were monitored after treatment with the peptides of the invention (Table 6).\nE. coli bacteria were cultured with or without OMN6 in increasing concentrations of 0.8-200 μM and with or without Fetal Bovine Serum 10% for 17-20 hours. The growth of the bacteria was continuously monitored via spectrophotometry at 600 nm. As bacterial growth progresses, OD600 nm values rise, and where the growth is inhibited OD600 nm values remain constant.\nE. coli NDM1 is a Carbapenem resistant strain of bacteria. The experimental system described above was used to determine the antimicrobial effect of OMN6 on this bacteria compared to the antibiotic drug Imipenem (IPM), a member of the Carbapenem family of antibiotics. The MIC value for IPM on sensitive E. coli is 4 μg/ml, in a MIC above 8 μg/ml the bacteria is considered resistant.\nThe experimental system and parameters described here were used to determine the MIC values of OMN2, OMN6, OMN7 and OMN11 on various bacteria strains (Table 7 and Table 8)."}}, "note": "Where two headings read alike, the source gives them in different places. Where a SMILES comes first, the peptide text is derived from it."}
{"smiles": "CC[C@H](C)[C@H](NC(=O)CNC(=O)[C@H](CC(=O)O)NC(=O)[C@H](CCCNC(=N)N)NC(=O)[C@@H](NC(=O)[C@H](CC(N)=O)NC(=O)[C@H](CCC(N)=O)NC(=O)CNC(=O)[C@@H](NC(=O)[C@H](CCCCN)NC(=O)[C@H](CCC(=O)O)NC(=O)[C@@H](NC(=O)[C@H](CCCCN)NC(=O)[C@H](CCCCN)NC(=O)[C@H](Cc1ccccc1)NC(=O)[C@H](CC(C)C)NC(=O)[C@H](CCCCN)NC(=O)[C@H](Cc1c[nH]c2ccccc12)NC(=O)[C@H](CCCCN)NC(=O)[C@H](CS)NC(=O)[C@@H](N)CCSC)[C@@H](C)CC)C(C)C)[C@@H](C)CC)C(=O)N[C@H](C(=O)N[C@@H](CCCCN)C(=O)N[C@@H](C)C(=O)NCC(=O)N1CCC[C@H]1C(=O)N[C@@H](C)C(=O)N[C@H](C(=O)N[C@@H](C)C(=O)N[C@H](C(=O)N[C@H](C(=O)NCC(=O)N[C@@H](CCC(N)=O)C(=O)N[C@@H](C)C(=O)N[C@H](C(=O)N[C@@H](CCC(N)=O)C(=O)N[C@H](C(=O)N[C@@H](C)C(=O)N[C@@H](CCCCN)C(=O)N[C@@H](CS)C(N)=O)[C@@H](C)CC)[C@@H](C)O)C(C)C)C(C)C)C(C)C)[C@@H](C)CC", "note": "[OMN6] (H-MCKWKLFKKIEKVGQNIRDGIIKAGPAVAVVGQATQIAKC-NH2; N-terminus and C-terminus assumed)", "values": [{"measurement": "Bacterial survival/growth as percent of CTRL group", "setting": "E. coli [1]", "result": "less than 10%"}, {"measurement": "Colony formation of Multi-Drug Resistant A. baumannii after plating", "setting": "A. baumannii BAA-1793; OMN6 0.62 μM and 1.25 μM", "result": "no inhibition of growth"}, {"measurement": "Colony formation of Multi-Drug Resistant A. baumannii after plating", "setting": "A. baumannii BAA-1793; OMN6 2.5 μM, 5 μM and 10 μM", "result": "void of colonies"}, {"measurement": "Inhibition of E. coli growth (OD600 nm)", "setting": "E. coli [2]; 12.5 μM, 17-20 hours", "result": "completely inhibited bacterial growth"}, {"measurement": "Duration of growth inhibition", "setting": "E. coli [2]; 12.5 μM, E. coli", "result": "more than 17 hours"}, {"measurement": "Colonies after plating (bactericidal nature)", "setting": "E. coli [2]; E. coli, experiment groups of Example 2 plated", "result": "no colonies present"}, {"measurement": "Inhibition of growth of E. coli NDM1", "setting": "E. coli CR BAA-2452", "result": "completely inhibited bacterial growth"}]}
